Columns and labels:
2M = biological target: T1, 2M (Thermococcus gorgonarius, UniProt P56689, A485L/D141A/E143A/E664K/F545L/I521L/K592A/T541G/V93Q/Y409G); test: Steady-state kinetics of single nucleotide incorporation by 2M; type: biochemical; conditions: single nucleotide incorporation from 2′OMe-RNA primer
T1 construct: made in house; host or cells: E. coli BL21 CodonPlus-RIL
Protocol: Steady-state kinetic parameters for NTP incorporation by 2M were determined by performing initial velocity measurements of single incorporations of either ATP, 2′OMe-ATP, or MOE-ATP. To generate the 2′OMe-RNA/DNA substrate, a 20-mer 2′OMe-RNA primer FD was 5′ 6-carboxyfluorescein end-labeled and annealed to the 52-mer DNA template BFL770 (Supplementary Table 1) at a 1:1.2 molar ratio. The reactions were performed at 50° C. in a mixture containing 1× Thermopol buffer, 6 mM Mg^2+, 100 nM 2′OMe-RNA/DNA substrate, and at NTP concentrations ranging from 0.5-250 μM. Enzyme concentrations and reaction times were selected to maintain initial velocity conditions. The 25 μL reactions were stopped by addition of a quenching solution containing 100 mM EDTA, 80% deionized formamide, 0.25 mg/ml bromophenol blue and 0.25 mg/ml xylene cyanol. Moreover, less than 20% of the primers were extended as required for steady-state conditions.
Product and substrate were separated on a 22% denaturing (8 M urea) polyacrylamide gel. The resulting bands were quantified using a Cytiva Typhoon RGB imager in fluorescence mode. Steady-state kinetic parameters (KM, kcat) were determined by fitting the data to the Michaelis-Menten equation. The data are the means and standard error from three independent experiments.

TGK = TGK (Thermococcus gorgonarius, UniProt P56689, A485L/D141A/E143A/E664K/V93Q/Y409G); conditions: ATP incorporation from an RNA primer; cited from earlier work
[1] = 2′OMezyme serum stability; type: in vitro ADME; conditions: 37° C., 120 h
Protocol: PAGE-purified 2′OMezyme “R15/5-K” and DNAzyme “1023_KRasC” were annealed in water as described above, then incubated (at 5 μM) at 37° C. in 95% human serum (MilliporeSigma, Germany). Full-length catalyst remaining was quantified on Urea-PAGE gels stained with SYBR Gold (ThermoFisher Scientific, USA).

Sub_KRas_12 [G12D] RNA = test: 2′OMezyme RNA cleavage in trans, KRAS G12D substrate; type: biochemical, human
Protocol: (§1) RNA cleavage assays were performed in trans using PAGE-purified 2′OMezymes and RNA substrates, annealed as described above and incubated at 37° C. in 2′OMezyme selection buffer (30 mM EPPS pH 7.4, 150 mM KCl, 1 mM MgCl2), or 30 mM EPP pH 8.5, 150 mM KCl, 25 mM MgCl2, supplemented with RNasin ribonuclease inhibitor (Promega, USA). In Mg^2+ titration experiments, 2′OMezyme selection buffer was supplemented with additional magnesium chloride (MgCl2); in pH titration experiments, 150 mM KCl, 1 mM MgCl2 plus 50 mM buffer as follows was used: […] (pH 5.0-6.0), EPPS (pH 6.5-8.75), CHES (pH 9.0-12.0). For magnesium free reactions, 30 mM EPPS pH 7.4, 150 mM KCl, 5 mM EDTA was used.
Pseudo first-order reaction rates (kobs) under single-turnover pre-steady-state (Km/kcat) conditions were determined from three independent reactions with (separately annealed) catalyst at 5 μM and substrate at 1 μM, as described previously^8, fit using Prism 9 (GraphPad Software, USA). For multiple turnover reactions, 1 μM substrate was reacted with 10 nM 2′OMezyme at 37° C. in 2′OMezyme selection buffer.

[2] = system: 2.1 kb KRAS transcript (Sub_KRas_ORF); test: 2′OMezyme cleavage of long KRAS transcripts; type: biochemical, human; conditions: 37° C., pH 7.4, 1 mM Mg^2+, 65 h
Protocol: Human cDNA clones for KRAS (transcript variant b, accession no. NM_004985) and CTNNB1 (transcript variant 1, accession no. NM_001904) in plasmids pCMV6-XL6 (SP6 promoter) (cat. no. SC109374) and pCMV6-XL5 (T7 promoter) (cat. no. SC107921), respectively, were obtained from OriGene, USA. Site-directed mutagenesis was performed using a QuikChange II kit (Agilent Technologies, USA), according to the manufacturer's protocol; KRAS mutations G12D (c.35G>A) and G13D ([…]), and CTNNB1 mutation S33Y (c.98C>A) were introduced using primer sets shown in Supplementary Table 2 (“Quik_KRAS_G12D_Fw/Rev”, “Quik_KRAS_G13D_Fw/Rev” or “Quik_CTNNB_G12D_Fw/Rev”) and resulting plasmids cloned and verified by Sanger sequencing (Source Biosciences, UK). Long RNA substrates equivalent to full KRAS and CTNNB1 mRNA transcripts bearing 5′ fluorescein (“Sub_KRas_ORF” and “Sub_CTNNB1_ORF”, respectively) were prepared using HiScribe T7 and SP6 RNA synthesis kits (NEB, USA), according to the manufacturer's protocol, with a 4:1 ratio of 5′-Fluorescein-ApG dinucleotide (IBA Life Sciences, Germany) to GTP, using template plasmids linearised using XmaI (NEB, USA). Reactions were subsequently treated with TURBO DNase (Invitrogen/Thermo Fisher Scientific, USA) and RNA transcripts purified using RNeasy mini kits (Qiagen, Germany). […]

[3] = system: ‘wild type’ (wt) KRAS RNA; test: 2′OMezyme RNA cleavage in trans, wild type KRAS substrate; type: biochemical, human; conditions: differs from G12D substrate by one nucleotide (G35)
Protocol: as §1

VEGF165 [4] = biological target: T2, VEGF165 (Homo sapiens, UniProt P15692-4 P15692-4:27-191); test: SPR; overall mean +/-29; PBS + 0.1% Tween20, 20 C; double-exponential fit; conditions: tags: biotinylated, Bio-Techne, captured on Neutravidin chip; chain copies: 2
Protocol: (§2) 2′OMe/MOE-RNA aptamers were synthesized from RNA primer Prim1 and 3′-biotinylated DNA template Temp_ARC224 (Supplementary Table 1) as described in section “Synthesis of 2′OMezymes for characterization” using 2′OMe/MOE-NTPs. 2′OMe/MOE-RNA aptamers were annealed at 1-10 μM in nuclease-free water by heating to 95° C. for 5 min and equilibrating at RT for 10 min. They were then diluted and analysed in PBS+0.1% (v/v) Tween20 (PBS-Tw). Surface Plasmon Resonance (SPR) measurements were made using a BIAcore 2000 instrument (GE Life Sciences, UK) at a flow rate of 20 μLmin⁻¹ at 20° C. CM4 sensor chip (GE Life Sciences, UK) surfaces were coated with Neutravidin (Pierce 31000, ThermoFisher Scientific, USA) surfaces (˜8000 RU per flow cell) using an amine coupling kit (GE Life Sciences, UK) and flowing in 5 mM NaOAc (sodium acetate), pH 5.5. Chips were equilibrated in PBS Tw and left to flow overnight until signal drift had settled. ˜2000 RU biotinylated human VEGF165 (Bio-Techne, USA) was captured (except for the reference cell) before blocking with excess free biotin. 50 μL aptamer samples at a series of concentrations (500 nM, 250 nM, 125 nM, 62.5 nM, 31.3 nM, 15.6 nM, 7.8 nM, 3.9 nM) were injected for 150 s and dissociation was recorded for 600 s, in PBS-Tw. Single injections of aptamers outside of the concentration series were performed at 100 nM (50 μL) in PBS-Tw. […]

VEGF165 [5] = biological target: T2, VEGF165; test: SPR; overall mean +/-88; PBS + 0.1% Tween20, 20 C; double-exponential fit; conditions: tags: biotinylated, Bio-Techne, captured on Neutravidin chip; chain copies: 2
Protocol: as §2

VEGF165 [6] = biological target: T2, VEGF165; test: SPR; overall mean +/-16; PBS + 0.1% Tween20, 20 C; double-exponential fit; conditions: tags: biotinylated, Bio-Techne, captured on Neutravidin chip; chain copies: 2
Protocol: as §2

[7] = system: 901 bp DNA template (sfGFP under T7 promoter); test: 2′OMe-RNA transcription reactions with RGVG-M6; type: biochemical; conditions: compared to 2M; dependent on high concentrations of Mn2+
Protocol: DNA template for transcription reactions was created by PCR-amplifying a 901-bp region on a plasmid encoding sfGFP under a T7 promoter. The PCR used 0.5 μM forward primer “5T7.for” and 0.5 μM reverse primer “pCUN_Do.rev”; cycling conditions were 95° C. for 30 s, 30×[95° C. for 10 s, 69° C. for 30 s, 72° C. for 30 s], 72° C. for 2 min.
For very permissive conditions, reactions comprised 125 nM DNA template, 200 nM T7 RNAP WT or its variant RGVG-M613, 1.5 mM MnCl2, 7.5 mM each NTP or 1 mM each 2′OMe-NTP, 0.1 U yeast inorganic pyrophosphatase. In order to compare the yield of 2′OMe-RNA synthesis by 2M and RGVG-M6, reactions were run under equimolar nucleic acid input of 0.5 pmol primer (2M) and 0.5 pmol DNA template (50 nM, RGVG-M6), and 50 nM RGVG-M6 polymerase with a polymerase:template ratio of 1:1 as described in 13. Reactions were treated with Turbo DNase and Proteinase K followed by denaturing PAGE.

For Nc1ncnc2c1ncn2[C@@H]1O[C@H](COP(=O)(O)OP(=O)(O)OP(=O)(O)O)[C@@H](O)[C@H]1O [ATP], the “Vmax/kcat values for incorporation” value (2M) is given as “essentially identical” and the Km (TGK) is given as 13.3 µM.

For “R15/5-K: RNA endonuclease 2′OMezyme (all 2′OMe-RNA) specific for KRAS RNA c.26 - 44, G12D allele (CCUACGCACGUGACCCAUGACGGACAGAGAAGGCAUGACAGACUGCUCCAA; all 2'-O-methyl, backbone not given here)”, the “degradation (or loss in activity) after incubation in human serum” value [1] was “no significant degradation”, the multiple-turnover catalysis (Sub_KRas_12 [G12D] RNA; 10 nM 2′OMezyme, 1 μM substrate) was “capable of multiple-turnover catalysis” and the kcat (Sub_KRas_12 [G12D] RNA; 1 mM Mg^2+, pH 7.4, 37° C., single turnover) was 3.06e-05 s⁻¹. For the same molecule, the “reduction of single-turnover rate compared with optimal conditions” value (Sub_KRas_12 [G12D] RNA; 1 mM Mg^2+, pH 7.4 vs 25 mM Mg^2+, pH 8.5) was “approximately 50%”, the kcat (Sub_KRas_12 [G12D] RNA; 5 mM EDTA, pH 7.4, 37° C. (absence of Mg^2+)) was 2.8e-07 s⁻¹ and the kcat (Sub_KRas_12 [G12D] RNA; 25 mM Mg^2+, pH 8.5, 37° C., single turnover, 5 μM 2′OMezyme, 1 μM substrate) was 6.67e-05 s⁻¹. The activity retained (Sub_KRas_12 [G12D] RNA; quasi-physiological low-Mg^2+ regime (0.5-1 mM Mg^2+)) was 70-80%, the “cleavage of wt KRAS transcript or G13D (c.38G>A) transcript” value [2] was “virtually no cleavage” and the “cleavage of long structured KRAS transcript bearing G12D” value ([2]; G12D (c.35G>A)) was “able to invade and cleave”. The “cleavage of wt KRAS RNA” value [3] was “essentially no cleavage”.

In the case of CGATATGCAGTTTGAGAAGTCGCGCATTCG (XNA, 2'-OMe G and U, 2'-O-MOE A and C) [ARC224 2'OMe-GU MOE-AC], the Kd (VEGF165 [4]) is reported as 30 nM.

In the case of CGATATGCAGTTTGAGAAGTCGCGCATTCG (XNA, 2'-OMe U, 2'-O-MOE A, C and G) [ARC224 2'OMe-U MOE-ACG], the Kd (VEGF165 [5]) is reported as 92 nM.

CGATATGCAGTTTGAGAAGTCGCGCATTCG (XNA, all 2'-OMe (A,C,G,U)) [ARC224 2'OMe] gave a Kd (VEGF165 [6]) of 23 nM.

B1: RGVG-M6: T7 RNA polymerase variant (P266L, S430P, N433T, E593G, S633P, Y639V, V685A, H784G, F849I, F880Y) (protein, UniProt P00573 1-883, looked up, variant P266L S430P N433T E593G S633P Y639V V685A H784G F849I F880Y)
T7 RNA polymerase: MNTINIAKNDFSDIELAAIPFNTLADHYGERLAREQLALEHESYEMGEARFRKMFERQLKAGEVADNAAAKPLITTLLPKMIARINDWFEEVKAKRGKRPTAFQFLQEIKPEAVAYITIKTTLACLTSADNTTVQAVASAIGRAIEDEARFGRIRDLEAKHFKKNVEEQLNKRVGHVYKKAFMQVVEADMLSKGLLGGEAWSSWHKEDSIHVGVRCIEMLIESTGMVSLHRQNAGVVGQDSETIELAPEYAEAIATRAGALAGISLMFQPCVVPPKPWTGITGGGYWANGRRPLALVRTHSKKALMRYEDVYMPEVYKAINIAQNTAWKINKKVLAVANVITKWKHCPVEDIPAIEREELPMKPEDIDMNPEALTAWKRAAAAVYRKDKARKSRRISLEFMLEQANKFANHKAIWFPYNMDWRGRVYAVPMFTPQGNDMTKGLLTLAKGKPIGKEGYYWLKIHGANCAGVDKVPFPERIKFIEENHENIMACAKSPLENTWWAEQDSPFCFLAFCFEYAGVQHHGLSYNCSLPLAFDGSCSGIQHFSAMLRDEVGGRAVNLLPSETVQDIYGIVAKKVNEILQADAINGTDNGVVTVTDENTGEISEKVKLGTKALAGQWLAYGVTRSVTKRPVMTLAVGSKEFGFRQQVLEDTIQPAIDSGKGLMFTQPNQAAGYMAKLIWESASVTVVAAVEAMNWLKSAAKLLAAEVKDKKTGEILRKRCAVHWVTPDGFPVWQEYKKPIQTRLNLMFLGQFRLQPTINTNKDSEIDAHKQESGIAPNFVGSQDGSHLRKTVVWAHEKYGIESFALIHDSFGTIPADAANLFKAVRETMVDTYESCDVLADFYDQIADQLHESQLDKMPALPAKGNLNLRDILESDYAFA
With B1 the “2′OMe-RNA synthesis activity (in words)” value [7] was “modest”.

From US20250197820A1, “NUCLEIC ACID POLYMERASE AND ITS USE IN PRODUCING NON-DNA NUCLEOTIDE POLYMERS” (UNITED KINGDOM RESEARCH AND INNOVATION, priority 2021, published 2025)
